Here are results for eight compounds from patent US10596291B2, “Effective anti-bacteria and anti-viral air treatment device” (KONINKLIJKE PHILIPS N.V., priority 2014, dated 2020).

This series is described as follows: Particle generation and ozone consumption by type of terpene in 26.5 m^3 test chamber. The series is classed as physicochemical. The method, then: Some further measurements were done with setups as describe above. Data in relation to particle generation and ozone consumption as function of type of terpene were determined. […] It is clear that e.g. eucalyptol and thymol is most desired amongst these four options.

Where [1] appears, read: terpene approx. 1 mg/m^3, 26.5 m^3 test chamber, initial ozone 100 ppb.
[2] abbreviates: terpene concentration 1 mg/m^3, 26.5 m^3 test chamber, initial ozone 100 ppb.

Where two headings read alike, the source gives them in different places.

For the compound `CC12CCC(CC1)C(C)(C)O2` [Eucalyptol, Eucalyptol (1,8-cineol)], the Particle yield under setting [1] is given as 779.9 10^6/mol. Also, the “average O3 consumption” value under setting [2] amounted to 2%.
For the compound `Cc1ccc(C(C)C)cc1O` [Carvacrol], the Particle yield was 851.8 10^6/mol and the “average O3 consumption” value worked out at 0%.
Regarding `C=C(C)[C@H]1CC=C(C)CC1` [Limonene], the Particle yield under setting [1] is reported as 94003.4 10^6/mol. Further, the “average O3 consumption” value under setting [2] is on record as 31%.
The matching figures for `C=CCc1ccc(O)c(OC)c1` [Eugenol]: 18742.9 10^6/mol and 15%.
Consider `Cc1ccc(C(C)C)c(O)c1` [Thymol], for which the Particle yield under setting [1] was 498.2 10^6/mol. Under setting [2], the “average O3 consumption” value stood at 2%.
The matching figures for `CC(C)=CCC/C(C)=C/CO` [Geraniol]: 57608.1 10^6/mol and 54%.
Regarding `C=CC(C)(O)CCC=C(C)C` (stereo not shown) [Linalool], the Particle yield under setting [1] was 76911.2 10^6/mol. The “average O3 consumption” value under setting [2] is on record as 44%.
Regarding y-terpinene, the Particle yield is 112499.9 10^6/mol and the “average O3 consumption” value was determined as 19%.
